Test results: PMC6272778, “New Lignans and Iridoid Glycosides from Dipsacus asper Wall” (Molecules, 2015)

Biological target: T1, HIV-1 integrase (Human immunodeficiency virus type 1 group M subtype B, UniProt P04585)
T1 construct: pre-incubated with 15 pmol integrase (IN) at 37 °C
Assay: HIV-1 integrase strand transfer inhibition assay (microplate, magnetic beads)
Type: biochemical, human immunodeficiency virus-1 (HIV-1)
Settings: for HIV-1 integrase inhibition activity (in words): qualitative summary of the integrase assay; for IC50: strand transfer reaction, microplate screening method, positive control baicalein, read-out: IC50, inhibition activity against HIV-1 integrase
Experimental: The assays were performed in a 96-well microplate (Corning, New York, NY, USA) in a final volume of 50 μL. The wells were washed once with the reaction buffer (25 mM/L PIPES, pH 7.0, 10 mM/L β-mercaptoethanol, 5% (w/v) glycerol, 0.1 g/L bovin serum albumin (BSA), and 10 mM/L MnCl2). The compounds were diluted with dimethyl sulfoxide (DMSO) to a final concentration of 10% DMSO into the reaction volume (v/v) and pre-incubated with 15 pmol integrase (IN) at 37 °C in the reaction buffer in the absence of MnCl2 (10 mM/L) for 10 min. Subsequently, 1.5 pM donor DNA and 15 pM target DNA were added and the reaction was initiated. After incubation for 1 h at 37 °C, […] magnetic particles (6.7 × 10^8 beads/mL) and 51.5 μL binding buffer (10 mM/L Tris–HCl, pH 7.6, 2 M/LNaCl, 20 mM/L ethylene diamine tetraacetic acid (EDTA), and 0.1% [w/v] Tween 20) were added and incubated at 20 °C for 15 min. Then the wells holding the mixture were placed in a magnetic concentrator, the supernatant was discarded, and the wells were washed 3 times with phosphate buffered saline (PBS) containing 0.1% Tween20(PBST). Subsequently, 100 μL of 1:5000 diluted alkaline phosphatase (AP) conjugate anti-DIG antibody was added and incubated for 30 min at 37 °C. Finally, the wells were washed 3 times with PBST and the magnetic beads were transferred into fresh wells; 100 μL P-nitrophenyl phosphate (P-NPP) substrate (0.1 M/L Na2CO3, pH 9.5, 6.7 mM/L P-NPP, and 2 mM/L MgCl2) was added. The plates were read at 405 nm with a Model 680 microplate reader (Bio-Rad, Hercules, CA, USA). In the assay, baicalein was used as the positive control.
The IC50 values of the samples were calculated based on the assay results after curve fitting according to a non-linear regression.

SMILES | HIV-1 integrase inhibition activity (in words) | IC50 [µM]
C=CC1C(OC2OC(CO)C(O)C(O)C2O)OC=C(C(=O)OC2CC3C(C(=O)OC)=COC(OC4OC(CO)C(O)C(O)C4O)C3C2C)C1CC1OC(C)C(C)O1 (stereo not drawn) [Compound 8, dipsanosides N] | weak HIV-1 integrase inhibitory activities | 92.7
COc1cc([C@@H]2OC[C@@]3(O)[C@@H]2CO[C@H]3c2ccc(O)c(OC)c2)ccc1O [Compound 2, (+)-8-hydroxy-7,7'-bis-epi-pinoresinol] | weak HIV-1 integrase inhibitory activities | 61.7
O=c1cc(-c2ccccc2)oc2cc(O)c(O)c(O)c12 [baicalein, reference compound] | – | 1.37
C=CC1C(OC2OC(CO)C(O)C(O)C2O)OC=C(C(=O)OC2CC3C(C(=O)OC)=COC(OC4OC(CO)C(O)C(O)C4O)C3C2C)C1CC1OC(C)C(C)O1 (stereo not drawn) [Compound 7, dipsanoside M] | weak HIV-1 integrase inhibitory activities | 84
COc1cc([C@@H]2OC[C@@]3(O)[C@@H]2CO[C@H]3c2cc(OC)c(O)c(OC)c2)ccc1O [Compound 1, (+)-8-hydroxy-7,7'-bis-epi-fraxiresinol] | weak HIV-1 integrase inhibitory activities | 53.3
